In US8933230B2, “Phosphorus-containing group-substituted quinoline, its preparation process, medical composition containing the compounds and application” (priority 2011, dated 2015):

Legend:
Assay in all cases: KinomeScan kinase panel
Assay type in all cases: binding
CDC2L5 = biological target: T1, CDC2L5 (Homo sapiens, UniProt Q14004)
T1 construct: purchased DiscoveRx Corporation (KinomeScan)
How it was run: (§1)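 KinomeScan, 442 kinases incl. mutants; cpd 1000 nM; single-concentration inhibition.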

[1] = biological target: T2, RPS6KA5(kin.Dom.1-N-termimal) (Homo sapiens, UniProt O75582)
T2 construct: kin.Dom.1; purchased DiscoveRx Corporation
How it was run: as §1

EGFR(L747-T751del,Sins) = biological target: T3, EGFR(L747-T751del,Sins) (Homo sapiens, UniProt P00533, DEL747-750/T751S)
T3 construct: purchased DiscoveRx Corporation (KinomeScan)
How it was run: as §1

PRKD2 = biological target: T4, PRKD2 (Homo sapiens, UniProt Q9BZL6)
T4 construct: purchased DiscoveRx Corporation (KinomeScan)
How it was run: as §1

MLK2 = biological target: T5, MLK2 (Homo sapiens, UniProt Q02779)
T5 construct: purchased DiscoveRx Corporation (KinomeScan)
How it was run: as §1

HIPK2 = biological target: T6, HIPK2 (Homo sapiens, UniProt Q9H2X6)
T6 construct: purchased DiscoveRx Corporation (KinomeScan)
How it was run: as §1

PAKC-alpha = biological target: T7, PAKC-alpha (Homo sapiens, UniProt P17612)
T7 construct: purchased DiscoveRx Corporation (KinomeScan)
How it was run: as §1

PRKX = biological target: T8, PRKX (Homo sapiens, UniProt P51817)
T8 construct: purchased DiscoveRx Corporation
How it was run: as §1

TRAK = biological target: T9, TRAK (Homo sapiens, UniProt P04629)
T9 construct: purchased DiscoveRx Corporation (KinomeScan)
How it was run: as §1

MAK = biological target: T10, MAK (Homo sapiens, UniProt P20794)
T10 construct: purchased DiscoveRx Corporation (KinomeScan)
How it was run: as §1

CDK5 = biological target: T11, CDK5 (Homo sapiens, UniProt Q00535)
T11 construct: purchased DiscoveRx Corporation (KinomeScan)
How it was run: as §1

LKB1 = biological target: T12, LKB1 (Homo sapiens, UniProt Q15831)
T12 construct: purchased DiscoveRx Corporation (KinomeScan)
How it was run: as §1

S6K1 = biological target: T13, S6K1 (Homo sapiens, UniProt P23443)
T13 construct: purchased DiscoveRx Corporation (KinomeScan)
How it was run: as §1

[2] = biological target: T14, ABL1(H396P)-nonphosphorylated (Homo sapiens, UniProt P00519, H396P)
T14 construct: purchased DiscoveRx Corporation (KinomeScan)
How it was run: as §1

NEK2 = biological target: T15, NEK2 (Homo sapiens, UniProt P51955)
T15 construct: purchased DiscoveRx Corporation (KinomeScan)
How it was run: as §1

ADCK3 = biological target: T16, ADCK3 (Homo sapiens, UniProt Q8NI60)
T16 construct: purchased DiscoveRx Corporation (KinomeScan)
How it was run: as §1

ERBB4 = biological target: T17, ERBB4 (Homo sapiens, UniProt Q15303)
T17 construct: purchased DiscoveRx Corporation (KinomeScan)
How it was run: as §1

BRSK2 = biological target: T18, BRSK2 (Homo sapiens, UniProt Q8IWQ3)
T18 construct: purchased DiscoveRx Corporation (KinomeScan)
How it was run: as §1

GSK3A = biological target: T19, GSK3A (Homo sapiens, UniProt P49840)
T19 construct: purchased DiscoveRx Corporation (KinomeScan)
How it was run: as §1

PAK2 = biological target: T20, PAK2 (Homo sapiens, UniProt Q13177)
T20 construct: purchased DiscoveRx Corporation (KinomeScan panel)
How it was run: as §1

PIK3CA(E545A) = biological target: T21, PIK3CA(E545A) (Homo sapiens, UniProt P42336, E545A)
T21 construct: purchased DiscoveRx Corporation (KinomeScan)
How it was run: as §1

MYO3B = biological target: T22, MYO3B (Homo sapiens, UniProt Q8WXR4)
T22 construct: purchased DiscoveRx Corporation (KinomeScan)
How it was run: as §1

CAMK2A = biological target: T23, CAMK2A (Homo sapiens, UniProt Q9UQM7)
T23 construct: purchased DiscoveRx Corporation (KinomeScan)
How it was run: as §1

PRKD3 = biological target: T24, PRKD3 (Homo sapiens, UniProt O94806)
T24 construct: purchased DiscoveRx Corporation (KinomeScan)
How it was run: as §1

[3] = biological target: T25, ABL1(T315I)-nonphosphorylated (Homo sapiens, UniProt P00519, T315I)
T25 construct: purchased DiscoveRx Corporation (KinomeScan)
How it was run: as §1

CSF1R = biological target: T26, CSF1R (Homo sapiens, UniProt P07333)
T26 construct: purchased DiscoveRx Corporation (KinomeScan)
How it was run: as §1

HCK = biological target: T27, HCK (Homo sapiens, UniProt P08631)
T27 construct: purchased DiscoveRx Corporation (KinomeScan)
How it was run: as §1

CSNK1A1 = biological target: T28, CSNK1A1 (Homo sapiens, UniProt P48729)
T28 construct: purchased DiscoveRx Corporation (KinomeScan)
How it was run: as §1

CAMK1G = biological target: T29, CAMK1G (Homo sapiens, UniProt Q96NX5)
T29 construct: purchased DiscoveRx Corporation (KinomeScan)
How it was run: as §1

[4] = biological target: T30, JAK2(JH1domain-catalytic) (Homo sapiens, UniProt O60674)
T30 construct: JAK2(JH1domain-catalytic); purchased DiscoveRx Corporation (KinomeScan)
How it was run: as §1

RET (V804M) = biological target: T31, RET (V804M) (Homo sapiens, UniProt P07949, V804M)
T31 construct: purchased DiscoveRx Corporation
How it was run: as §1

IRAK3 = biological target: T32, IRAK3 (Homo sapiens, UniProt Q9Y616)
T32 construct: purchased DiscoveRx Corporation (KinomeScan)
How it was run: as §1

MAPKAPK5 = biological target: T33, MAPKAPK5 (Homo sapiens, UniProt Q8IW41)
T33 construct: purchased DiscoveRx Corporation (KinomeScan)
How it was run: as §1

PHKG2 = biological target: T34, PHKG2 (Homo sapiens, UniProt P15735)
T34 construct: purchased DiscoveRx Corporation (KinomeScan)
How it was run: as §1

MST3 = biological target: T35, MST3 (Homo sapiens, UniProt Q9Y6E0)
T35 construct: purchased DiscoveRx Corporation (KinomeScan)
How it was run: as §1

T30 sequence (O60674 849-1124 limits assumed): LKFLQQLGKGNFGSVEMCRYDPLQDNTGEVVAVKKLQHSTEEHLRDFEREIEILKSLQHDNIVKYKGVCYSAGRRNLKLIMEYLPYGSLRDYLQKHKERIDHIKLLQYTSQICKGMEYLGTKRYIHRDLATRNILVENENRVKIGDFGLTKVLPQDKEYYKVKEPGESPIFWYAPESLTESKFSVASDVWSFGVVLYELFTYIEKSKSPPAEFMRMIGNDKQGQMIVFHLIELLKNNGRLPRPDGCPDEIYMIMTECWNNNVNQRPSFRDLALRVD
T8 sequence (P51817 whole entry): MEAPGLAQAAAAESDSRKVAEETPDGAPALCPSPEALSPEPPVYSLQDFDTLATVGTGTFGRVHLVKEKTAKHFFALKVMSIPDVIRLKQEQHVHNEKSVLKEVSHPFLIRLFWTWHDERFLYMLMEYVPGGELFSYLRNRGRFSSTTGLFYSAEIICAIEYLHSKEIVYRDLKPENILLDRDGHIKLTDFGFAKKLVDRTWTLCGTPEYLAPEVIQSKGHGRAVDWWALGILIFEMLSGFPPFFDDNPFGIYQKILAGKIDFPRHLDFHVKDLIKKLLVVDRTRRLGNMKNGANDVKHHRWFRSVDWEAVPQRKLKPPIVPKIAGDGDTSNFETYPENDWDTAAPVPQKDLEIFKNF
T6 sequence (Q9H2X6 whole entry): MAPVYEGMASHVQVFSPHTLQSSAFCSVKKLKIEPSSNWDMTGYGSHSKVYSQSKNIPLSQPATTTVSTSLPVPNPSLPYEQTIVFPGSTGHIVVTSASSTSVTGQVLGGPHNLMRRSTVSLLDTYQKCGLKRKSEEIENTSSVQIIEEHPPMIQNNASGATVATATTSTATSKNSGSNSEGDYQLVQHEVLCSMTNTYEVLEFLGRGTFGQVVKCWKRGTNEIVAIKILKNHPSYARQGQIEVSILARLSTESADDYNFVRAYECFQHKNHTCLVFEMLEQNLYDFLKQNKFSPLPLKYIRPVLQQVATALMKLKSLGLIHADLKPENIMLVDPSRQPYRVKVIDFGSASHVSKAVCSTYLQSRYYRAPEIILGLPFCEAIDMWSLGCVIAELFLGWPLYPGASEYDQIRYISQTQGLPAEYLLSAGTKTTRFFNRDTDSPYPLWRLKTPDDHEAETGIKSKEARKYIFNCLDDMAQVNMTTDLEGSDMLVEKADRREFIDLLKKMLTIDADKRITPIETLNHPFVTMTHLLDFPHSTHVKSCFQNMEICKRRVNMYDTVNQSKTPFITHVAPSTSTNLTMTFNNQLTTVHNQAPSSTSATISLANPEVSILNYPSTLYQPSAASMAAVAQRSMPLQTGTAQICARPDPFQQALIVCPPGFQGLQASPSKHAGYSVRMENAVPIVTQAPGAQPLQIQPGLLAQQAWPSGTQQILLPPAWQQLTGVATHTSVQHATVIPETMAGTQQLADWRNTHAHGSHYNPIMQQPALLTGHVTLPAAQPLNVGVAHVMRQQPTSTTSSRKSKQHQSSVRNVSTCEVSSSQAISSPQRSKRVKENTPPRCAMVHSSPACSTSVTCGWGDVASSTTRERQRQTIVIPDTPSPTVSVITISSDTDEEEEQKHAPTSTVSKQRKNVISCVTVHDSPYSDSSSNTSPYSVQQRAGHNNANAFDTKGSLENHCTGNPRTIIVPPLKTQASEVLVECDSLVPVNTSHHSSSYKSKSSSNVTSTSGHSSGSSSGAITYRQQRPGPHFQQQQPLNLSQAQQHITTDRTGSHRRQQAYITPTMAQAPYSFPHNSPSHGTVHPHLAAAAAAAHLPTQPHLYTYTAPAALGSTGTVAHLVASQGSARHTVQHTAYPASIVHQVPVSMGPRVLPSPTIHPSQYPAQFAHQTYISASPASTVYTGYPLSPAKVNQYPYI
T21 sequence (P42336 whole entry E545A): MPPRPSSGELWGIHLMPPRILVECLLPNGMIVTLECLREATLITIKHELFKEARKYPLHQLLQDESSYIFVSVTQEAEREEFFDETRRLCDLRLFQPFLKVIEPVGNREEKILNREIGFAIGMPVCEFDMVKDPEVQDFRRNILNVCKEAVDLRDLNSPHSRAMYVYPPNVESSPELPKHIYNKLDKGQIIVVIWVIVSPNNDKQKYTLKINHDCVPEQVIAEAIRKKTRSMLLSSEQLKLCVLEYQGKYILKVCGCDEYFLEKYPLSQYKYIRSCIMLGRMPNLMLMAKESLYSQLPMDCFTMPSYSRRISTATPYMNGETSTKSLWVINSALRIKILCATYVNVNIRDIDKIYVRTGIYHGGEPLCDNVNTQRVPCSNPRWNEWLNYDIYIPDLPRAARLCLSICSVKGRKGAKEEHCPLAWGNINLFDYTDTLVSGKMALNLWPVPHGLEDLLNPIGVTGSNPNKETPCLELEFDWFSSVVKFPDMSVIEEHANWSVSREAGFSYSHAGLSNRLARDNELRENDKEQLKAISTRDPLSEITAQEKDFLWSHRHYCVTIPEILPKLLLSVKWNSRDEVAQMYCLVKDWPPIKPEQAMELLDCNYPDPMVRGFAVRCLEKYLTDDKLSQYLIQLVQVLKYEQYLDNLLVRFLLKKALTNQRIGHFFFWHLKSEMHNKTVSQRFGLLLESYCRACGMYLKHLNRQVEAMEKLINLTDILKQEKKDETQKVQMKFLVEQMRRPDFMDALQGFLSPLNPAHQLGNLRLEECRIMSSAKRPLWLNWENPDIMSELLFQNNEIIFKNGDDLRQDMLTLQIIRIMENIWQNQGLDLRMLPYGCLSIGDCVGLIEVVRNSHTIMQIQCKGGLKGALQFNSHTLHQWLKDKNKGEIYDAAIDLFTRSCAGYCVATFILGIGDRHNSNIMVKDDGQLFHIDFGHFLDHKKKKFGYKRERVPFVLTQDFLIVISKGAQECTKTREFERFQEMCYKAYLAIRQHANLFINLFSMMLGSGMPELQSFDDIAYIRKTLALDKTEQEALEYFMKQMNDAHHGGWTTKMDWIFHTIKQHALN
T35 sequence (Q9Y6E0 whole entry): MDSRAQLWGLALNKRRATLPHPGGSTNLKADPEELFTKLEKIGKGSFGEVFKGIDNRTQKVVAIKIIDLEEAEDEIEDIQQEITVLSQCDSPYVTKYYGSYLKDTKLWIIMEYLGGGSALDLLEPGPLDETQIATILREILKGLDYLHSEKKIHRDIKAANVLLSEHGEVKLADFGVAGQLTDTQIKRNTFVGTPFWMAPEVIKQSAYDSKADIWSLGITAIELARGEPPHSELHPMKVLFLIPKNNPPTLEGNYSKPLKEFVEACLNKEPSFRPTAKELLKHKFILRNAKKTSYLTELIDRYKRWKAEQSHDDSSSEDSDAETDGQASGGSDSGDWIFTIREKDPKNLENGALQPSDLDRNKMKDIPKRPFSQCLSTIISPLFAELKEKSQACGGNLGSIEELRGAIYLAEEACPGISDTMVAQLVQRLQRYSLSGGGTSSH
T11 sequence (Q00535 whole entry): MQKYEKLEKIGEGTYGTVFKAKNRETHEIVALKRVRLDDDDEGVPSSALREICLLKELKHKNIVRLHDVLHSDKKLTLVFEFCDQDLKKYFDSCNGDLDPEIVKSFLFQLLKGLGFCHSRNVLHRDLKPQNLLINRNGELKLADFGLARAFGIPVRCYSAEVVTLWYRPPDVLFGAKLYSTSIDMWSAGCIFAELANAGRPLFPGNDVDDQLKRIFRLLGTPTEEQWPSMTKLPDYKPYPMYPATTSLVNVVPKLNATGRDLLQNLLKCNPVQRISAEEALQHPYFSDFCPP
T33 sequence (Q8IW41 whole entry): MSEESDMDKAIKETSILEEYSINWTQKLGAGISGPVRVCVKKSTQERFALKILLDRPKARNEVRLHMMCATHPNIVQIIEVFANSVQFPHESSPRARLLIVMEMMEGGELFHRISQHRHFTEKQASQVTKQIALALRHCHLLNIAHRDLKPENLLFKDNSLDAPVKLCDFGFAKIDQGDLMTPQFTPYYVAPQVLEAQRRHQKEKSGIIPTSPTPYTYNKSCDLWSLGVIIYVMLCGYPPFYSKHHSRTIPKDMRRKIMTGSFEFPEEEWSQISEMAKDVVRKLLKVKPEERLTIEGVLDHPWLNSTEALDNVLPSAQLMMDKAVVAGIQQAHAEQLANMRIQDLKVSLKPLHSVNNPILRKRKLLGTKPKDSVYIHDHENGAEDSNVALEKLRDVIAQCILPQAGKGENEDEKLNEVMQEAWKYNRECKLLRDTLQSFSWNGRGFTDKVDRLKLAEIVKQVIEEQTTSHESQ
T18 sequence (Q8IWQ3 whole entry): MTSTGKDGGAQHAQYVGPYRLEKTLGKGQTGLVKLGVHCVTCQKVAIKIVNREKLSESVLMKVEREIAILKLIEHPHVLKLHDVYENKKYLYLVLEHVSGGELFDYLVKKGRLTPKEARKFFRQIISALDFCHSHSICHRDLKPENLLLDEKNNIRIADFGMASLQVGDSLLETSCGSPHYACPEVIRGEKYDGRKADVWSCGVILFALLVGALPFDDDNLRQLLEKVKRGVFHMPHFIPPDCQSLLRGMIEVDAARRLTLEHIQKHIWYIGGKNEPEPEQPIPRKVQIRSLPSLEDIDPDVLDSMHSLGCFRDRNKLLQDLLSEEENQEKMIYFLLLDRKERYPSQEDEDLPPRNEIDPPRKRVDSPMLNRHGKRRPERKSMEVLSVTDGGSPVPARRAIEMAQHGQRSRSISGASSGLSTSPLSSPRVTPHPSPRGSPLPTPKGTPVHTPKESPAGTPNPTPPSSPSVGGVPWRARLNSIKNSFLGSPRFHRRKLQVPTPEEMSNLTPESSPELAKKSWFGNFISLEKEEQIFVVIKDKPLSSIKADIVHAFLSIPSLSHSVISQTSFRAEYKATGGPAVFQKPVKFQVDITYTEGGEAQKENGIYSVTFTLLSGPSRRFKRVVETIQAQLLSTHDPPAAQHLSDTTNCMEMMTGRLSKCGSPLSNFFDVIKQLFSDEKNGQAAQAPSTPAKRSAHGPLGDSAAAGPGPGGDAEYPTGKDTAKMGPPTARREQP

CCOP(=O)(CN1CCC(COc2cc3nccc(Oc4ccc(NC(=O)C5(C(=O)Nc6ccc(F)cc6)CC5)cc4F)c3cc2OC)CC1)OCC [Example 10, N1-[4-[[7-[[1-(diethoxyphosphorylmethyl)-4-piperidinyl]methoxyl]-6-methoxyl-4-quinolyl]oxyl]-3-fluorophenyl]-N1′-(4-fluorophenyl)cyclopropane-1,1-dicarboxamide]
% Ctrl@1000 nM (CDC2L5): 100 % Ctrl
% Ctrl@1000 nM [1]: 100 % Ctrl
% Ctrl@1000 nM (EGFR(L747-T751del,Sins)): 72 % Ctrl
% Ctrl@1000 nM (PRKD2): 100 % Ctrl
% Ctrl@1000 nM (MLK2): 78 % Ctrl
% Ctrl@1000 nM (HIPK2): 100 % Ctrl
% Ctrl@1000 nM (PAKC-alpha): 100 % Ctrl
% Ctrl@1000 nM (PRKX): 81 % Ctrl
% Ctrl@1000 nM (TRAK): 1.8 % Ctrl
% Ctrl@1000 nM (MAK): 100 % Ctrl
% Ctrl@1000 nM (CDK5): 100 % Ctrl
% Ctrl@1000 nM (LKB1): 100 % Ctrl
% Ctrl@1000 nM (S6K1): 89 % Ctrl
% Ctrl@1000 nM [2]: 1.9 % Ctrl
% Ctrl@1000 nM (NEK2): 100 % Ctrl
% Ctrl@1000 nM (ADCK3): 67 % Ctrl
% Ctrl@1000 nM (ERBB4): 100 % Ctrl
% Ctrl@1000 nM (BRSK2): 100 % Ctrl
% Ctrl@1000 nM (GSK3A): 100 % Ctrl
% Ctrl@1000 nM (PAK2): 54 % Ctrl
% Ctrl@1000 nM (PIK3CA(E545A)): 74 % Ctrl
% Ctrl@1000 nM (MYO3B): 100 % Ctrl
% Ctrl@1000 nM (CAMK2A): 100 % Ctrl
% Ctrl@1000 nM (PRKD3): 88 % Ctrl
% Ctrl@1000 nM [3]: 3.8 % Ctrl
% Ctrl@1000 nM (CSF1R): 0.25 % Ctrl
% Ctrl@1000 nM (HCK): 0.35 % Ctrl
% Ctrl@1000 nM (CSNK1A1): 100 % Ctrl
% Ctrl@1000 nM (CAMK1G): 88 % Ctrl
% Ctrl@1000 nM [4]: 100 % Ctrl
% Ctrl@1000 nM (RET (V804M)): 0.6 % Ctrl
% Ctrl@1000 nM (IRAK3): 33 % Ctrl
% Ctrl@1000 nM (MAPKAPK5): 100 % Ctrl
% Ctrl@1000 nM (PHKG2): 96 % Ctrl
% Ctrl@1000 nM (MST3): 100 % Ctrl
